From patent US10167262B2, “Herbicidal substituted 3-arylpyrazoles” (FMC CORPORATION, priority 2014, dated 2019)

Experiments:
Test in all cases: Test E pre-/postemergence greenhouse test, plant response rating 0-100
Format in all cases: in vivo
[1] = tested on: yellow nutsedge (Cyperus esculentus); conditions: Preemergence, scale 0 to 100
[2] = tested on: smartweed (ladysthumb smartweed, Polygonum persicaria); conditions: scale 0 to 100; for Smartweed plant response rating: Preemergence
[3] = tested on: large (Lg) crabgrass (Digitaria sanguinalis); conditions: Preemergence, scale 0 to 100
[4] = tested on: green foxtail (Setaria viridis); conditions: Preemergence, scale 0 to 100
[5] = tested on: kochia (Kochia scoparia); conditions: Preemergence, scale 0 to 100
Summary of the method: (§1)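 Seeds sown in silt loam soil received preemergence treatment with compound in a non-phytotoxic solvent mixture containing surfactant. Postemergence, plants at 2–18 cm (1- to 4-leaf stage) in peat/vermiculite medium were sprayed with the same formulation. Visual injury versus untreated controls was rated 0–100 after 14 to 21 days in the greenhouse.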

[6] = tested on: smartweed (ladysthumb smartweed, Polygonum persicaria); conditions: Postemergence, scale 0 to 100
[7] = tested on: surinam grass (Brachiaria decumbens); conditions: Preemergence, scale 0 to 100
Summary of the method: as §1

[8] = tested on: Italian ryegrass (Lolium multiflorum); conditions: scale 0 to 100; for Ryegrass, Italian plant response rating: Preemergence
Summary of the method: as §1

[9] = tested on: ragweed (common ragweed, Ambrosia elatior); conditions: Preemergence, scale 0 to 100
Summary of the method: as §1

[10] = tested on: velvetleaf (Abutilon theophrasti); conditions: Preemergence, scale 0 to 100
Summary of the method: as §1

[11] = tested on: barnyardgrass (Echinochloa crus-galli); conditions: scale 0 to 100; for Barnyardgrass plant response rating: Preemergence
Summary of the method: as §1

[12] = tested on: morningglory (Ipomoea coccinea); conditions: Preemergence, scale 0 to 100
[13] = tested on: giant foxtail (Setaria faberii); conditions: Preemergence, scale 0 to 100
[14] = tested on: goosegrass (Eleusine indica); conditions: Preemergence, scale 0 to 100
[15] = tested on: johnsongrass (Sorghum halepense); conditions: Preemergence, scale 0 to 100

O=C(c1ccccc1)c1cn(CO)nc1-c1cc(Cl)cc(Cl)c1 [Compound 15, [3-(3,5-dichlorophenyl)-1-(hydroxymethyl)-1H-pyrazol-4-yl]phenylmethanone]
75: Kochia plant response rating ([5]; 250 g ai/ha) | Plant response rating, Smartweed ([6]; 62 g ai/ha)
20: Kochia plant response rating ([5]; 125 g ai/ha) | Velvetleaf plant response rating ([10]; 31 g ai/ha)
25: Velvetleaf plant response rating ([10]; 62 g ai/ha)
65: Velvetleaf plant response rating ([10]; 250 g ai/ha)
95: Ragweed plant response rating ([9]; 250 g ai/ha)
15: Nutsedge, Yellow plant response rating ([1]; 31 g ai/ha)
10: Nutsedge, Yellow plant response rating ([1]; 125 g ai/ha)
80: Kochia plant response rating ([5]; 500 g ai/ha)
0%: pest or weed control at 31 g/ha ([8]; Lolium multiflorum, post-emergence, Postemergence, 31 g ai/ha) | pest or weed control at 62 g/ha ([8]; Lolium multiflorum, post-emergence, Postemergence, 62 g ai/ha) | pest or weed control at 125 g/ha ([8]; Lolium multiflorum, post-emergence, Postemergence, 125 g ai/ha) | pest or weed control at 250 g/ha ([8]; Lolium multiflorum, post-emergence, Postemergence, 250 g ai/ha) | pest or weed control at 500 g/ha ([8]; Lolium multiflorum, post-emergence, Postemergence, 500 g ai/ha) | pest or weed control at 31 g/ha ([11]; Echinochloa crus-galli, post-emergence, Postemergence, 31 g ai/ha) | pest or weed control at 62 g/ha ([11]; Echinochloa crus-galli, post-emergence, Postemergence, 62 g ai/ha) | pest or weed control at 125 g/ha ([11]; Echinochloa crus-galli, post-emergence, Postemergence, 125 g ai/ha) | pest or weed control at 250 g/ha ([11]; Echinochloa crus-galli, post-emergence, Postemergence, 250 g ai/ha) | pest or weed control at 500 g/ha ([11]; Echinochloa crus-galli, post-emergence, Postemergence, 500 g ai/ha)
100: Smartweed plant response rating ([2]; 250 g ai/ha) | Smartweed plant response rating ([2]; 500 g ai/ha) | Ragweed plant response rating ([9]; 500 g ai/ha) | Velvetleaf plant response rating ([10]; 500 g ai/ha)
40: Kochia plant response rating ([5]; 62 g ai/ha)
35: Nutsedge, Yellow plant response rating ([1]; 62 g ai/ha) | Velvetleaf plant response rating ([10]; 125 g ai/ha)
0: Nutsedge, Yellow plant response rating ([1]; 250 g ai/ha) | Nutsedge, Yellow plant response rating ([1]; 500 g ai/ha) | Smartweed plant response rating ([2]; 31 g ai/ha) | Smartweed plant response rating ([2]; 62 g ai/ha) | Smartweed plant response rating ([2]; 125 g ai/ha) | Crabgrass, Large plant response rating ([3]; 31 g ai/ha) | Crabgrass, Large plant response rating ([3]; 62 g ai/ha) | Crabgrass, Large plant response rating ([3]; 125 g ai/ha) | Crabgrass, Large plant response rating ([3]; 250 g ai/ha) | Crabgrass, Large plant response rating ([3]; 500 g ai/ha) | Foxtail, Green plant response rating ([4]; 31 g ai/ha) | Foxtail, Green plant response rating ([4]; 62 g ai/ha) | Foxtail, Green plant response rating ([4]; 125 g ai/ha) | Foxtail, Green plant response rating ([4]; 250 g ai/ha) | Foxtail, Green plant response rating ([4]; 500 g ai/ha) | Kochia plant response rating ([5]; 31 g ai/ha) | Plant response rating, Smartweed ([6]; 31 g ai/ha) | Surinam Grass plant response rating ([7]; 31 g ai/ha) | Surinam Grass plant response rating ([7]; 62 g ai/ha) | Surinam Grass plant response rating ([7]; 125 g ai/ha) | Surinam Grass plant response rating ([7]; 250 g ai/ha) | Surinam Grass plant response rating ([7]; 500 g ai/ha) | Ryegrass, Italian plant response rating ([8]; 31 g ai/ha) | Ryegrass, Italian plant response rating ([8]; 62 g ai/ha) | Ryegrass, Italian plant response rating ([8]; 125 g ai/ha) | Ryegrass, Italian plant response rating ([8]; 250 g ai/ha) | Ryegrass, Italian plant response rating ([8]; 500 g ai/ha) | Ragweed plant response rating ([9]; 31 g ai/ha) | Ragweed plant response rating ([9]; 62 g ai/ha) | Ragweed plant response rating ([9]; 125 g ai/ha) | Barnyardgrass plant response rating ([11]; 31 g ai/ha) | Barnyardgrass plant response rating ([11]; 62 g ai/ha) | Barnyardgrass plant response rating ([11]; 125 g ai/ha) | Barnyardgrass plant response rating ([11]; 250 g ai/ha) | Barnyardgrass plant response rating ([11]; 500 g ai/ha) | Morningglory plant response rating ([12]; 62 g ai/ha) | Morningglory plant response rating ([12]; 125 g ai/ha) | Morningglory plant response rating ([12]; 250 g ai/ha) | Morningglory plant response rating ([12]; 500 g ai/ha) | Foxtail, Giant plant response rating ([13]; 31 g ai/ha) | Foxtail, Giant plant response rating ([13]; 62 g ai/ha) | Foxtail, Giant plant response rating ([13]; 125 g ai/ha) | Foxtail, Giant plant response rating ([13]; 250 g ai/ha) | Foxtail, Giant plant response rating ([13]; 500 g ai/ha) | Goosegrass plant response rating ([14]; 31 g ai/ha) | Goosegrass plant response rating ([14]; 125 g ai/ha) | Goosegrass plant response rating ([14]; 250 g ai/ha) | Goosegrass plant response rating ([14]; 500 g ai/ha) | Johnsongrass plant response rating ([15]; 31 g ai/ha) | Johnsongrass plant response rating ([15]; 62 g ai/ha) | Johnsongrass plant response rating ([15]; 125 g ai/ha) | Johnsongrass plant response rating ([15]; 250 g ai/ha) | Johnsongrass plant response rating ([15]; 500 g ai/ha)

O=C(c1ccccc1)c1cn(S(=O)(=O)CCl)nc1-c1cc(Cl)cc(Cl)c1 [Compound 1]
0: Nutsedge, Yellow plant response rating ([1]; 31 g ai/ha) | Nutsedge, Yellow plant response rating ([1]; 62 g ai/ha) | Nutsedge, Yellow plant response rating ([1]; 125 g ai/ha) | Nutsedge, Yellow plant response rating ([1]; 250 g ai/ha) | Smartweed plant response rating ([2]; 31 g ai/ha) | Crabgrass, Large plant response rating ([3]; 31 g ai/ha) | Crabgrass, Large plant response rating ([3]; 62 g ai/ha) | Crabgrass, Large plant response rating ([3]; 125 g ai/ha) | Crabgrass, Large plant response rating ([3]; 250 g ai/ha) | Crabgrass, Large plant response rating ([3]; 500 g ai/ha) | Foxtail, Green plant response rating ([4]; 31 g ai/ha) | Foxtail, Green plant response rating ([4]; 62 g ai/ha) | Foxtail, Green plant response rating ([4]; 125 g ai/ha) | Foxtail, Green plant response rating ([4]; 250 g ai/ha) | Kochia plant response rating ([5]; 31 g ai/ha) | Kochia plant response rating ([5]; 62 g ai/ha) | Kochia plant response rating ([5]; 125 g ai/ha) | Plant response rating, Smartweed ([6]; 31 g ai/ha) | Surinam Grass plant response rating ([7]; 31 g ai/ha) | Surinam Grass plant response rating ([7]; 62 g ai/ha) | Surinam Grass plant response rating ([7]; 125 g ai/ha) | Surinam Grass plant response rating ([7]; 250 g ai/ha) | Surinam Grass plant response rating ([7]; 500 g ai/ha) | Plant response rating, Ryegrass, Italian ([8]; Postemergence, 31 g ai/ha) | Plant response rating, Ryegrass, Italian ([8]; Postemergence, 62 g ai/ha) | Plant response rating, Ryegrass, Italian ([8]; Postemergence, 125 g ai/ha) | Plant response rating, Ryegrass, Italian ([8]; Postemergence, 250 g ai/ha) | Plant response rating, Ryegrass, Italian ([8]; Postemergence, 500 g ai/ha) | Ryegrass, Italian plant response rating ([8]; 31 g ai/ha) | Ryegrass, Italian plant response rating ([8]; 62 g ai/ha) | Ryegrass, Italian plant response rating ([8]; 125 g ai/ha) | Ryegrass, Italian plant response rating ([8]; 250 g ai/ha) | Ryegrass, Italian plant response rating ([8]; 500 g ai/ha) | Plant response rating, Barnyardgrass ([11]; Postemergence, 31 g ai/ha) | Plant response rating, Barnyardgrass ([11]; Postemergence, 62 g ai/ha) | Plant response rating, Barnyardgrass ([11]; Postemergence, 125 g ai/ha) | Plant response rating, Barnyardgrass ([11]; Postemergence, 250 g ai/ha) | Plant response rating, Barnyardgrass ([11]; Postemergence, 500 g ai/ha) | Barnyardgrass plant response rating ([11]; 62 g ai/ha) | Barnyardgrass plant response rating ([11]; 125 g ai/ha) | Barnyardgrass plant response rating ([11]; 250 g ai/ha) | Barnyardgrass plant response rating ([11]; 500 g ai/ha) | Morningglory plant response rating ([12]; 31 g ai/ha) | Morningglory plant response rating ([12]; 62 g ai/ha) | Morningglory plant response rating ([12]; 125 g ai/ha) | Morningglory plant response rating ([12]; 250 g ai/ha) | Morningglory plant response rating ([12]; 500 g ai/ha) | Foxtail, Giant plant response rating ([13]; 31 g ai/ha) | Foxtail, Giant plant response rating ([13]; 62 g ai/ha) | Foxtail, Giant plant response rating ([13]; 125 g ai/ha) | Foxtail, Giant plant response rating ([13]; 250 g ai/ha) | Foxtail, Giant plant response rating ([13]; 500 g ai/ha) | Goosegrass plant response rating ([14]; 31 g ai/ha) | Goosegrass plant response rating ([14]; 62 g ai/ha) | Goosegrass plant response rating ([14]; 125 g ai/ha) | Goosegrass plant response rating ([14]; 250 g ai/ha) | Goosegrass plant response rating ([14]; 500 g ai/ha) | Johnsongrass plant response rating ([15]; 31 g ai/ha) | Johnsongrass plant response rating ([15]; 62 g ai/ha) | Johnsongrass plant response rating ([15]; 125 g ai/ha)
40: Velvetleaf plant response rating ([10]; 62 g ai/ha)
15: Foxtail, Green plant response rating ([4]; 500 g ai/ha)
98: Smartweed plant response rating ([2]; 125 g ai/ha) | Smartweed plant response rating ([2]; 250 g ai/ha) | Smartweed plant response rating ([2]; 500 g ai/ha) | Kochia plant response rating ([5]; 500 g ai/ha)
75: Plant response rating, Smartweed ([6]; 250 g ai/ha) | Ragweed plant response rating ([9]; 250 g ai/ha) | Ragweed plant response rating ([9]; 500 g ai/ha)
35: Plant response rating, Smartweed ([6]; 62 g ai/ha) | Velvetleaf plant response rating ([10]; 31 g ai/ha) | Velvetleaf plant response rating ([10]; 250 g ai/ha)
85: Plant response rating, Smartweed ([2]; Postemergence, 500 g ai/ha)
50: Kochia plant response rating ([5]; 250 g ai/ha) | Plant response rating, Smartweed ([6]; 125 g ai/ha) | Ragweed plant response rating ([9]; 31 g ai/ha) | Velvetleaf plant response rating ([10]; 125 g ai/ha) | Velvetleaf plant response rating ([10]; 500 g ai/ha)
20: Johnsongrass plant response rating ([15]; 250 g ai/ha) | Johnsongrass plant response rating ([15]; 500 g ai/ha)
